From patent publication US10266526B2, “Substituted 1,2,3-triazoles as SMYD inhibitors for treating cancer” (EPIZYME, INC., priority 2014, dated 2019)

The compounds below were run against SMYD3 (Homo sapiens (Human), UniProt Q9H7B4) (assay: SMYD3 biochemical assay (SMYD3 enzyme assay on MEKK2 protein substrate, 3H-SAM scintillation proximity assay)). Conditions: Table 1A; average of n = 1 to n = 50; read-out: SMYD3 Biochem IC50.
Procedure, shortened: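 Detection used scintillation proximity beads to capture ³H-methylated GST-MEKK2 after quench with 100 uM final cold SAM. The reaction was started by SAM/MEKK2 addition after a 30 min RT compound–enzyme preincubation. Enzyme was tag-free full-length human SMYD3 from E. coli, in buffer of 25 mM Tris-Cl pH 8.0, 1 mM TCEP, 0.005% BSG, 0.005% Tween 20.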

SMYD3, sequence (Q9H7B4 whole entry): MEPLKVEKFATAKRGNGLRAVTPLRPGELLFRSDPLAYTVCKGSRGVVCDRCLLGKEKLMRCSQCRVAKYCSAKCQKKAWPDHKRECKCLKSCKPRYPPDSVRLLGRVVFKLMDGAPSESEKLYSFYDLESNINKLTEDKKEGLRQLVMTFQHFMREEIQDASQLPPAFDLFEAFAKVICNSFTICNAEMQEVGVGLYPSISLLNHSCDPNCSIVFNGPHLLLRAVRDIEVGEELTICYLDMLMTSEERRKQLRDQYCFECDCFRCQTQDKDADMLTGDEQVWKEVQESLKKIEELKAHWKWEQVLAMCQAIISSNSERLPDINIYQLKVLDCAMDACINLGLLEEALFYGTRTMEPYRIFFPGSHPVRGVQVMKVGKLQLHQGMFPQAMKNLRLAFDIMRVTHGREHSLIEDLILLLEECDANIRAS

Q: Which IC50 does the source give for `CC(NC(=O)c1nnc[nH]1)C1CCN(C(=O)[C@H](C)N)CC1` (stereo partly drawn) [compound 523, N-(1-(1-(L-alanyl)piperidin-4-yl)ethyl)-4H-1,2,4-triazole-3-carboxamide] here?
A: Its IC50 is greater than 50 µM.

Q: `NCCC(=O)N[C@H]1CC[C@H](NC(=O)c2nnc[nH]2)CC1` [compound 525, N-((1r,4r)-4-(3-aminopropanamido)cyclohexyl)-4H-1,2,4-triazole-3-carboxamide] was tested. Which IC50 did it give?
A: The IC50 was greater than 50 µM.

Q: `CC(NC(=O)c1cc(Cl)[nH]n1)C1CCN(C(=O)[C@H](C)N)CC1` (stereo partly drawn) [compound 527, N-(1-(1-(L-alanyl)piperidin-4-yl)ethyl)-5-chloro-1H-pyrazole-3-carboxamide] was tested. Which IC50 did it give?
A: The IC50 was greater than 50 µM.

Q: With `NCCC(=O)N[C@H]1CC[C@H](NC(=O)c2cc(Cl)[nH]n2)CC1` [compound 528, N-((1r,4r)-4-(3-aminopropanamido)cyclohexyl)-5-chloro-1H-pyrazole-3-carboxamide] as the compound, how does the IC50 read?
A: The IC50 was greater than 50 µM.

Q: Which IC50 does the source give for `NCCC(=O)N[C@H]1CC[C@H](NC(=O)c2cc3cn[nH]c3cn2)CC1` [compound 529, N-((1r,4r)-4-(3-aminopropanamido)cyclohexyl)-1H-pyrazolo[3,4-c]pyridine-5-carboxamide] here?
A: The IC50 was 4.45 µM.

Q: `NCCC(=O)N[C@H]1CC[C@H](NC(=O)c2n[nH]c(=O)[nH]2)CC1` [compound 530, N-((1r,4r)-4-(3-aminopropanamido)cyclohexyl)-5-oxo-4,5-dihydro-1H-1,2,4-triazole-3-carboxamide] was tested. Which IC50 did it give?
A: Its IC50 is greater than 50 µM.

Q: How did the IC50 turn out when `N[C@H]1CC[C@H](NC(=O)c2n[nH]c(=O)[nH]2)CC1` [compound 531, N-((1r,4r)-4-aminocyclohexyl)-5-oxo-4,5-dihydro-1H-1,2,4-triazole-3-carboxamide] was run?
A: Its IC50 is greater than 50 µM.

Q: With `NCCC(=O)N[C@H]1CC[C@H](NC(=O)c2nc3ccncc3s2)CC1` [compound 532, N-((1r,4r)-4-(3-aminopropanamido)cyclohexyl)thiazolo[5,4-c]pyridine-2-carboxamide] as the compound, how does the IC50 read?
A: Its IC50 is greater than 50 µM.

Q: `N[C@H]1CC[C@H](NC(=O)c2nc3ccncc3s2)CC1` [compound 533, N-((1r,4r)-4-aminocyclohexyl)thiazolo[5,4-c]pyridine-2-carboxamide] was tested. Which IC50 did it give?
A: Its IC50 is greater than 50 µM.

Q: With `CC(NC(=O)c1cn(CC(N)=O)nn1)C1CCN(C(=O)[C@H](C)N)CC1` (stereo partly drawn) [compound 534, N-(1-(1-(L-alanyl)piperidin-4-yl)ethyl)-1-(2-amino-2-oxoethyl)-1H-1,2,3-triazole-4-carboxamide] as the compound, how does the IC50 read?
A: The IC50 was greater than 50 µM.

Q: How did the IC50 turn out when `CCc1nc(C(=O)N[C@H]2CC[C@H](N)CC2)n[nH]1` [compound 535, N-((1r,4r)-4-aminocyclohexyl)-5-ethyl-1H-1,2,4-triazole-3-carboxamide] was run?
A: The IC50 was greater than 50 µM.

Q: With `CCc1nnc(C(=O)N[C@H]2CC[C@H](NC(=O)CCN)CC2)[nH]1` [compound 536, N-((1r,4r)-4-(3-aminopropanamido)cyclohexyl)-5-ethyl-4H-1,2,4-triazole-3-carboxamide] as the compound, how does the IC50 read?
A: Its IC50 is greater than 50 µM.

Q: Which IC50 does the source give for `NCCC(=O)N[C@H]1CC[C@H](NC(=O)c2c[nH]cn2)CC1` [compound 537, N-((1r,4r)-4-(3-aminopropanamido)cyclohexyl)-1H-imidazole-4-carboxamide] here?
A: The IC50 was greater than 50 µM.

Q: With `Cc1cc2cc(C(=O)NC(C)C3CCN(C(=O)[C@H](C)N)CC3)ccc2[nH]1` (stereo partly drawn) [compound 538, N-(1-(1-(L-alanyl)piperidin-4-yl)ethyl)-2-methyl-1H-indole-5-carboxamide] as the compound, how does the IC50 read?
A: Its IC50 is greater than 50 µM.

Q: `N[C@H]1CC[C@H](C(=O)N[C@H]2CC[C@H](NC(=O)c3ncn[nH]3)CC2)CC1` [compound 539, N-((1R,4r)-4-((1r,4R)-4-aminocyclohexane-1-carboxamido)cyclohexyl)-1H-1,2,4-triazole-5-carboxamide] was tested. Which IC50 did it give?
A: Its IC50 is greater than 50 µM.

Q: Which IC50 does the source give for `NCCCC(=O)N[C@H]1CC[C@H](NC(=O)c2nnc[nH]2)CC1` [compound 540, N-((1r,4r)-4-(4-aminobutanamido)cyclohexyl)-4H-1,2,4-triazole-3-carboxamide] here?
A: The IC50 was greater than 50 µM.

Q: For `N[C@H]1CC[C@H](NC(=O)c2n[nH]c(Cl)n2)CC1` [compound 541, N-((1r,4r)-4-aminocyclohexyl)-5-chloro-1H-1,2,4-triazole-3-carboxamide], which IC50 is on record?
A: Its IC50 is greater than 50 µM.
